In paper PMC8286840, “Identifying SARS-CoV-2 antiviral compounds by screening for small molecule inhibitors of Nsp3 papain-like protease” (Biochemical Journal, 2021):
Where a name gives a salt, the structure may show the parent alone. Read-outs that look alike come from different tables or passages of the source. Where a SMILES comes first, the peptide text is derived from it. [ ]: non-standard residue; d: D form. The star is where a group is joined. Dolaproine = CO[C@@H]([C@@H]1CCCN1)[C@@H](C)C(=O)O; Hexanoyl(6-maleimido) = O=C1C=CC(=O)N1CCCCCC(=O)*; Dil = CC[C@H](C)[C@H](NC)[C@@H](CC(=O)O)OC; Doe = c1ccc(C[C@H](N*)c2nccs2)cc1; X2 = C[C@@H](N*)[C@@H](O)c1ccccc1; NMeV = CN[C@H](C(=O)O)C(C)C

Experiments:
[1] = biological target: T1, SARS-CoV-2 PLpro (nsp3 1564–1878) (Severe acute respiratory syndrome coronavirus 2, UniProt P0DTD1); test: biochemical; set-up: FRET-quenched peptide (Pro3) cleavage by PLpro, 10 min pre-incubation, slope over 20 min, normalised to no-compound control; details: low concentration screen, read-out: % of control remaining
[2] = biological target: T1, SARS-CoV-2 PLpro (nsp3 1564–1878); test: biochemical; set-up: FRET-quenched peptide (Pro3) cleavage by PLpro, 10 min pre-incubation, slope over 20 min, normalised to no-compound control; details: high concentration screen, read-out: % of control remaining

S=C=Nc1cccc(NC(=S)NCCCCNC(=S)Nc2cccc(N=C=S)c2)c1 [MRS 2578]
remaining activity at 1.25 µM ([1]; Well no.=4797): 93.1%
remaining activity at 1.25 µM ([1]; Well no.=7275): 95%
remaining activity at 3.75 µM ([2]; Well no.=7275): 95.2%

CCCn1c(=O)c2[nH]c(-c3ccc(OCC(=O)Nc4ccc(C(C)=O)cc4)cc3)nc2n(CCC)c1=O [MRS-1706]
remaining activity at 1.25 µM ([1]; Well no.=8511): 102%
remaining activity at 3.75 µM ([2]; Well no.=8511): 105%

Cc1cc(/N=N/c2ccc(S(=O)(=O)Nc3ccccn3)cc2)c(N)cc1O [MS436]
remaining activity at 1.25 µM ([1]; Well no.=7590): 93.3%
remaining activity at 3.75 µM ([2]; Well no.=7590): 96.8%

c1cnc(NCc2ccc(CNc3ncccn3)cc2)nc1 [MSX-122]
remaining activity at 1.25 µM ([1]; Well no.=8075): 97%
remaining activity at 1.25 µM ([1]; Well no.=8397): 89.1%
remaining activity at 3.75 µM ([2]; Well no.=8075): 84.8%
remaining activity at 3.75 µM ([2]; Well no.=8397): 90.4%

Cc1nc(C#Cc2cccnc2)cs1 [MTEP (hydrochloride)]
remaining activity at 1.25 µM ([1]; Well no.=7283): 92.5%
remaining activity at 3.75 µM ([2]; Well no.=7283): 94.9%

Cc1ccc(NS(=O)(=O)c2ccc3c(c2)C2C=CCC2C(c2ccc(C(=O)O)cc2)N3)cc1C (centres unmarked) [MX69]
remaining activity at 1.25 µM ([1]; Well no.=6822): 97.6%
remaining activity at 1.25 µM ([1]; Well no.=7984): 100%
remaining activity at 3.75 µM ([2]; Well no.=6822): 94.1%
remaining activity at 3.75 µM ([2]; Well no.=7984): 98.5%

CCCNS(=O)(=O)Nc1ncnc(OCCOc2ncc(Br)cn2)c1-c1ccc(Br)cc1 [Macitentan]
remaining activity at 1.25 µM ([1]; Well no.=4830): 97.6%
remaining activity at 1.25 µM ([1]; Well no.=8253): 97.3%
remaining activity at 3.75 µM ([2]; Well no.=4830): 97.8%
remaining activity at 3.75 µM ([2]; Well no.=8253): 90.3%

C[C@H]1[C@H](C)CC[C@]2(C(=O)O)CC[C@]3(C)C(=CC[C@@H]4[C@@]5(C)C[C@@H](O)[C@H](O)[C@@](C)(CO)[C@@H]5[C@H](O)C[C@]43C)[C@H]12 [Madecassic acid]
remaining activity at 1.25 µM ([1]; Well no.=3657): 104%
remaining activity at 3.75 µM ([2]; Well no.=3657): 104%

C=CCc1ccc(O)c(-c2cc(CC=C)ccc2O)c1 [Magnolol]
remaining activity at 1.25 µM ([1]; Well no.=3659): 96.1%
remaining activity at 3.75 µM ([2]; Well no.=3659): 98.1%

O=C(O)/C=C\C(=O)O [Maleic Acid]
remaining activity at 1.25 µM ([1]; Well no.=6593): 100%
remaining activity at 3.75 µM ([2]; Well no.=6593): 101%

O=C(O)CC(O)C(=O)O (centres unmarked) [Malic acid]
remaining activity at 1.25 µM ([1]; Well no.=6637): 106%
remaining activity at 3.75 µM ([2]; Well no.=6637): 110%

CC(C)OC(=O)C(C(=O)OC(C)C)=C1SC=CS1 [Malotilate]
remaining activity at 1.25 µM ([1]; Well no.=8884): 85.8%
remaining activity at 3.75 µM ([2]; Well no.=8884): 84.3%

COC(=O)C1=C(C)NC(C)=C(C(=O)OCCN2CCN(C(c3ccccc3)c3ccccc3)CC2)C1c1cccc([N+](=O)[O-])c1 (centres unmarked) [Manidipine]
remaining activity at 1.25 µM ([1]; Well no.=1788): 104%
remaining activity at 3.75 µM ([2]; Well no.=1788): 99.9%

C=C[C@](C)(O)CC[C@H]1C(=C)CC[C@H]2C(C)(C)CCC[C@]12C [Manool]
remaining activity at 1.25 µM ([1]; Well no.=3389): 95.7%
remaining activity at 3.75 µM ([2]; Well no.=3389): 98.7%

CNCCC[C@]12CC[C@H](c3ccccc31)c1ccccc12 [Maprotiline hydrochloride]
remaining activity at 1.25 µM ([1]; Well no.=845): 103%
remaining activity at 3.75 µM ([2]; Well no.=845): 103%

CNCCCC12CCC(c3ccccc31)c1ccccc12 [Maprotiline.HCl]
remaining activity at 1.25 µM ([1]; Well no.=1787): 95.1%
remaining activity at 3.75 µM ([2]; Well no.=1787): 96.8%

Cc1nnc(C(C)C)n1[C@@H]1C[C@H]2CC[C@@H](C1)N2CC[C@H](NC(=O)C1CCC(F)(F)CC1)c1ccccc1 [Maraviroc]
remaining activity at 1.25 µM ([1]; Well no.=4678): 103%
remaining activity at 1.25 µM ([1]; Well no.=8691): 101%
remaining activity at 3.75 µM ([2]; Well no.=4678): 100%
remaining activity at 3.75 µM ([2]; Well no.=8691): 102%

O=C(/C=C/c1ccc(O)c(O)c1)c1ccc(O[C@@H]2O[C@H](CO)[C@@H](O)[C@H](O)[C@H]2O)c(O)c1O [Marein]
remaining activity at 1.25 µM ([1]; Well no.=3731): 91.7%
remaining activity at 3.75 µM ([2]; Well no.=3731): 95.9%

O=C1/C(=C/c2ccc(O)c(O)c2)Oc2c1ccc(O[C@@H]1O[C@H](CO)[C@@H](O)[C@H](O)[C@H]1O)c2O [Maritimein]
remaining activity at 1.25 µM ([1]; Well no.=3339): 91.1%
remaining activity at 3.75 µM ([2]; Well no.=3339): 97.6%

O=C(c1ccccc1O)c1[nH]c(Cl)c(Cl)c1-n1c(C(=O)c2ccccc2O)cc(Cl)c1Cl [Maritoclax]
remaining activity at 1.25 µM ([1]; Well no.=6588): 101%
remaining activity at 3.75 µM ([2]; Well no.=6588): 99.2%

O=C1CCC[C@@H]2[C@H]3CCCN4CCC[C@@H](CN12)[C@@H]34 [Matrine]
remaining activity at 1.25 µM ([1]; Well no.=3661): 101%
remaining activity at 1.25 µM ([1]; Well no.=8341): 100%
remaining activity at 3.75 µM ([2]; Well no.=3661): 103%
remaining activity at 3.75 µM ([2]; Well no.=8341): 94.7%

NCCCCN(Cc1nc2ccccc2[nH]1)[C@H]1CCCc2cccnc21 [Mavorixafor (trihydrochloride)]
remaining activity at 1.25 µM ([1]; Well no.=8167): 109%
remaining activity at 3.75 µM ([2]; Well no.=8167): 103%

CC[C@H](C)[C@@H]([C@@H](CC(=O)N1CCC[C@H]1[C@H](OC)[C@@H](C)C(=O)N[C@@H](Cc1ccccc1)c1nccs1)OC)N(C)C(=O)[C@@H](NC(=O)[C@H](C(C)C)N(C)C(=O)CCCCCN1C(=O)C=CC1=O)C(C)C [Mc-MMAD] ({Hexanoyl(6-maleimido)}-[NMeV]V[Dil][Dolaproine]-Doe)
remaining activity at 1.25 µM ([1]; Well no.=8610): 95.3%
remaining activity at 3.75 µM ([2]; Well no.=8610): 91.2%

CC[C@H](C)[C@@H]([C@@H](CC(=O)N1CCC[C@H]1[C@H](OC)[C@@H](C)C(=O)N[C@H](C)[C@@H](O)c1ccccc1)OC)N(C)C(=O)[C@@H](NC(=O)[C@H](C(C)C)N(C)C(=O)CCCCCN1C(=O)C=CC1=O)C(C)C [Mc-MMAE] ({Hexanoyl(6-maleimido)}-[NMeV]V[Dil][Dolaproine]-X2)
remaining activity at 1.25 µM ([1]; Well no.=8552): 93.6%
remaining activity at 3.75 µM ([2]; Well no.=8552): 98.9%

CC[C@H](C)[C@@H]([C@@H](CC(=O)N1CCC[C@H]1[C@H](OC)[C@@H](C)C(=O)N[C@@H](Cc1ccccc1)C(=O)O)OC)N(C)C(=O)[C@@H](NC(=O)[C@H](C(C)C)N(C)C(=O)CCCCCN1C(=O)C=CC1=O)C(C)C [McMMAF] ({Hexanoyl(6-maleimido)}-[NMeV]V[Dil][Dolaproine]F-OH)
remaining activity at 1.25 µM ([1]; Well no.=7742): 97.3%
remaining activity at 3.75 µM ([2]; Well no.=7742): 101%

C[N+](C)(C)CC#CCOC(=O)Nc1cccc(Cl)c1 [McN-A-343]
remaining activity at 1.25 µM ([1]; Well no.=184): 102%
remaining activity at 3.75 µM ([2]; Well no.=184): 96.2%

O=C(O)COc1ccccc1C(Nc1ccccn1)c1cc(Cl)c2cccnc2c1O (centres unmarked) [Mcl1-IN-1]
remaining activity at 1.25 µM ([1]; Well no.=6880): 99.8%
remaining activity at 3.75 µM ([2]; Well no.=6880): 96.8%

CN(N=O)c1ccc(O)c(O)c1 [Me-3,4-dephostatin]
remaining activity at 1.25 µM ([1]; Well no.=1131): 95.2%
remaining activity at 3.75 µM ([2]; Well no.=1131): 91.3%

CCCCCCCC/C=C\C/C=C\C/C=C\CCCC(=O)NCCO [Mead ethanolamide]
remaining activity at 1.25 µM ([1]; Well no.=4324): 99.8%
remaining activity at 3.75 µM ([2]; Well no.=4324): 95.4%

COC(=O)Nc1nc2cc(C(=O)c3ccccc3)ccc2[nH]1 [Mebendazol]
remaining activity at 1.25 µM ([1]; Well no.=1947): 99%
remaining activity at 3.75 µM ([2]; Well no.=1947): 100%
